Literature values as cited in patent publication US20040009207A1, “Medicinal beverage containing molecular oxygen” (priority 2000, published 2004).
Like-named read-outs stand apart in the source and are kept apart here.

solubility of O2 in one litre water (0° C.): 0.0491 L
solubility of O2 in one litre water (50° C.): 0.0209 L
Structure (SMILES): O=O [O2, molecular oxygen]
